From patent US20250154123A1, “COOLING COMPOUNDS AND COMPOSITIONS” (V. MANE FILS, priority 2022, published 2025)

What was measured:
hTRPM8 ion channel = biological target: T1, hTRPM8 ion channel (Homo sapiens, UniProt Q7Z2W7); test: Primary in vitro screening on hTRPM8 (CHO-KJ cells, FLUO-8 calcium fluorometry, relative to icilin); assay type: cell-based; settings: for % activation vs iciline: CHO-KJ cells expressing hTRPM8; for activation on hTRPM8 compared with comparative molecules (Physcool, WS-5, WS-3, l-isopulegol, l-menthol, menthyl lactate): primary screening, Table 1
T1 construct: expressed in transfected cells; host or cells: CHO-KJ cells [sic]
Method: (§1) The compounds were evaluated in vitro on CHO-KJ cells expressing the gene encoding the hTRPM8 ion channel (Table 1). Channel activation is determined by fluorometric measurement of […] calcium using FLUO-8. The activity of the compounds was measured relative to icilin (known hTRPM8 agonist).

[1] = Organoleptic evaluation in still water by a trained panel (cooling intensity over time); assay type: in vivo, human
Text: Inventive compounds 1, 2 and 5 were organoleptically evaluated in still water by a trained panel. […] […] These inventive compounds appear to behave similarly to the comparative compounds.

[2] = Chewing gum evaluation protocol, cooling intensity rated 0-10 by 6 trained panelists over 10 min; assay type: in vivo, human; settings: 0.20 wt % in chewing gum, chewed 10 min, 6 panelists
Method: An unflavored chewing gum paste was prepared using the following formulation: Sorbitol (52.4 wt %), gum base (30.0 wt %), maltitol syrup (7.0 wt %), glycerine (5.0 wt %), mannitol (5.0 wt %), soy lecithin (0.4 wt %), acesulfame-K (0.1 wt %), and aspartame (0.1 wt %). The paste was warmed 1-2 min using a micro-wave to soften the mixture. After adding the cooling agent (0.20 wt % Compound 1), the paste was kneaded to homogenise the product. Then the paste is stretched using a sheeter, flatted at 2 mm thick, and cut in regular rectangular pieces (12×42 mm). Chewing-gums pieces are packed in plastic bag and put 1 week at room temperature to let them stabilise. Comparative chewing gum samples (A-C) were also prepared using 0.26 wt % PHYSCOOL™; 0.21 wt % WS-3™; and 0.17 wt % WS-23™, respectively.
A chewing gum evaluation protocol was performed by 6 trained panelists, where the chewing gum was chewed for 10 min while holding the panelist's mouth closed. The cooling intensity was rated from 0 (not perceived) to 10 (very intense) at 5 sec, 15 sec, 30 sec, 45 sec, 1 min, 1.5 min, 2 min, and then every minute until 10 minutes.

hTRPM8 [3] = biological target: T2, hTRPM8 (Homo sapiens, UniProt Q7Z2W7); test: EC50 measurement on hTRPM8 (response curve); assay type: cell-based; settings: for EC50: hTRPM8, response curve
T2 construct: expressed in transfected cells; host or cells: CHO-KJ cells [sic]
Method: as §1
A response curve was developed for compounds 1, 3, 5 and 37 which made it possible to determine the EC50 (half maximal effective concentration) values on hTRPM8 and compare them with the EC50 values of the comparative compounds (Table 3).

hTRPM8 [4] = biological target: T2, hTRPM8; test: Secondary in vitro screening on hTRPM8 at 5 μM versus WS-3; assay type: cell-based; settings: WS3 as reference compound
Method: as §1
The compounds 1 to 40 were tested on hTRPM8 at 5 μM using WS3 as the reference compound (Table 2).

T2 sequence (Q7Z2W7 whole entry): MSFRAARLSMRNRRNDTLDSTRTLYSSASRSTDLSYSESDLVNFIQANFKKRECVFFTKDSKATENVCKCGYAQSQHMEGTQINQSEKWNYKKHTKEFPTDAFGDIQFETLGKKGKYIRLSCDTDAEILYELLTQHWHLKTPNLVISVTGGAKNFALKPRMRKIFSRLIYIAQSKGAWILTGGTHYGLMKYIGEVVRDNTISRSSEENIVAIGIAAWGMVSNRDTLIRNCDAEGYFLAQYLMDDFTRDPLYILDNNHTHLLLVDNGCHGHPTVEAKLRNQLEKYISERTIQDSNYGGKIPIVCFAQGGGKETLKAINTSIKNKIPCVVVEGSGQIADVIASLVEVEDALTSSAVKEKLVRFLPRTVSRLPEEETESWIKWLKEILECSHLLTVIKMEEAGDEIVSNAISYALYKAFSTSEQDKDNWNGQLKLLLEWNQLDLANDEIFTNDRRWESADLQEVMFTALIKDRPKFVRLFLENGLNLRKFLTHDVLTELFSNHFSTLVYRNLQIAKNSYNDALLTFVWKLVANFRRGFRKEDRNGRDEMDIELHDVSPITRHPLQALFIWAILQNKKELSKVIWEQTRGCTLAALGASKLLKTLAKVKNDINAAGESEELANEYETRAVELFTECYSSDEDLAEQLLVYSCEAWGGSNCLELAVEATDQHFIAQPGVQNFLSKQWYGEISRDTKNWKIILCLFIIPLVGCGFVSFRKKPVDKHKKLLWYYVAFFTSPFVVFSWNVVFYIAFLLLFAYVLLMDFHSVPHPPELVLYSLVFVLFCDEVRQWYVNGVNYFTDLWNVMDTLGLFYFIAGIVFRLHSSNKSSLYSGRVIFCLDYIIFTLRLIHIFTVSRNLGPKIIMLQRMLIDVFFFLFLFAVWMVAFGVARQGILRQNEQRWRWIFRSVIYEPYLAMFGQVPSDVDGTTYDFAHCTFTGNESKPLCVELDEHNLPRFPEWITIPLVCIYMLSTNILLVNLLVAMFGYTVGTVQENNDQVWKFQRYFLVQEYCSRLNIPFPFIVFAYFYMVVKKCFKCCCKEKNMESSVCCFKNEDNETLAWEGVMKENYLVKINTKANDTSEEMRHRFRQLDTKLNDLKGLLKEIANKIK
T1 sequence (Q7Z2W7 whole entry): as above

Structure (SMILES) | % activation vs iciline (hTRPM8 ion channel; concentration 156 μM) [%] | activation on hTRPM8 compared with comparative molecules (Physcool, WS-5, WS-3, l-isopulegol, l-menthol, menthyl lactate) (hTRPM8 ion channel) | cooling effect versus Physcool ([1]; equimolar, larger panel, over 10 min, FIG. 3) | freshness in the mouth ([1]; still water, trained panel) | duration of cooling intensity in chewing gum, similar to WS-3 (0.21 wt %) and WS-23 (0.17 wt %) [2] | cooling intensity and duration in chewing gum versus Comparative Sample A (0.26 wt % PHYSCOOL) ([2]; average) | EC50 on hTRPM8 compared with WS-3 and WS-5 (hTRPM8 [3]; Table 3) | EC50 (hTRPM8 [3]) [µM] | activation at 5 µM (hTRPM8 [4]) [%] | % activation vs iciline (hTRPM8 ion channel; concentration 96 μM) [%]
CC(C)[C@@H]1CC[C@@H](C)CC1(CO)CO [Compound 1, ((2S,5R)-2-isopropyl-5-methylcyclohexane-1,1-diyl)dimethanol] | 199 | greater activations than the comparative molecules | persistent cooling effect similar to Physcool® but with a greater intensity | freshness in the mouth with both an attack and a good persistence | long cooling intensity out to 10 minutes | more initial cooling intensity and longer lasting duration than Comparative Sample A | EC50 values lower than WS-3™ and similar to WS-5™ | 4.6 | 99 | –
COc1cc(C2OCC3(CO2)C[C@H](C)CC[C@H]3C(C)C)ccc1O (stereo partly drawn) [Compound 5, 4-((7S,10R)-7-isopropyl-10-methyl-2,4-dioxaspiro[5.5]undecan-3-yl)-2-methoxyphenol] | – | greater activations than the comparative molecules | – | – | – | – | – | 39 | 16 | 176
